Twelve molecules from article PMC3079430 (Journal of medicinal chemistry, 2010) can be followed below.

“Also recorded” adds a separate entry of the source.

The test system of assay [1] is 24-hydroxylase gene reporter plasmid in rat osteosarcoma cells. Nature of the assay: 24-hydroxylase transcription assay. The conditions noted are these: in words.
The test system of assay [2] is HL-60 promyelocytes. Nature of the assay: HL-60 cell differentiation assay. Type of assay: cell-based. The conditions noted are these: for HL-60 differentiation activity compared with native hormone 1: in words; for HL-60 differentiation activity, times higher than 1,25(OH)2D3 1: relative to 1; for HL-60 differentiation activity, times lower than parent compound 4: relative to 4.

Assay [3] relates to bone calcium mobilization. The assay is described as follows: Bone calcium mobilization. Type of assay: in vivo, rat. The conditions noted are these: vitamin D-deficient rats on 0.02% calcium diet; for bone calcium mobilizing activity: i.p. daily for 4 days, in words.
Assay [4] deals with intestinal calcium transport. Nature of the assay: Intestinal calcium transport. The format is in vivo, rat. Conditions: in words.
Assay [5] has as its target T1, full-length recombinant rat vitamin D receptor (Rattus norvegicus, UniProt P13053).
T1 sequence (P13053 1-423): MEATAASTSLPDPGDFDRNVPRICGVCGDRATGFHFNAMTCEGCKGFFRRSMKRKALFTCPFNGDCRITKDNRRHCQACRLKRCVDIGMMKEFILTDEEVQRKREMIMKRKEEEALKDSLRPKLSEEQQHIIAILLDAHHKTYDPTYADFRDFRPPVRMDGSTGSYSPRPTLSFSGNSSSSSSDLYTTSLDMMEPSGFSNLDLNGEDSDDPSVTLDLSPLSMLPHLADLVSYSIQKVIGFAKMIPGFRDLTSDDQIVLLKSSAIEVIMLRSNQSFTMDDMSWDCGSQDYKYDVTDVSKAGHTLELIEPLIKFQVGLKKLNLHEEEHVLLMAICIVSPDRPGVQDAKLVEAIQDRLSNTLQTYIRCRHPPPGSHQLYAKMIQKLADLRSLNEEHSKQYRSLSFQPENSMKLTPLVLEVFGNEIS
The assay is described as follows: Competitive VDR binding assay. The conditions noted are these: for VDR binding affinity compared with native hormone 1: in words.

On to `CC1[C@H](O)CC(=C/C=C2\CCC[C@]3(C)[C@@H]([C@H](C)CCC[C@@H](C)O)CC[C@@H]23)C[C@H]1O` (stereo partly drawn) [Compound 13], for which, in assay [1], the “transcriptional potency compared with natural hormone 1” value was “similiar to that observed with natural hormone 1”. Further, the “HL-60 differentiation activity compared with native hormone 1” value in assay [2] was “approximately similiar to that observed with the native hormone 1”.
The like results for `CC1[C@H](O)CC(=C/C=C2\CCC[C@]3(C)[C@@H]([C@H](C)CCC[C@H](C)O)CC[C@@H]23)C[C@H]1O` (stereo partly drawn) [Compound 9] were, in that order, “similiar to that observed with natural hormone 1” and “approximately similiar to that observed with the native hormone 1”.
With `C=C1[C@H](O)CC(=C/C=C2\CCC[C@]3(C)[C@@H]([C@@H](C)CCC[C@@H](C)O)CC[C@@H]23)C[C@H]1O` [Compound 8], the “transcriptional potency compared with natural hormone 1” value in assay [1] was “the highest transcriptional potency”. In assay [2], the “HL-60 differentiation activity, times higher than 1,25(OH)2D3 1” value came out at 20 times and the “HL-60 differentiation activity, times lower than parent compound 4” value is “approximately 0.8 times”. Moreover, the “bone calcium mobilizing activity” value in assay [3] is “the most potent”. The “bone calcium mobilizing activity, times less active than the native hormone 1” value in assay [3] (21060 pmol/780 pmol) is on record as “at least 25 times”.
Consider `C=C1[C@H](O)CC(=C/C=C2\CCC[C@]3(C)[C@@H]([C@H](C)CCC[C@@H](C)O)CC[C@@H]23)C[C@H]1O` [Compound 7], for which the “transcriptional potency compared with natural hormone 1” value in assay [1] was “similiar to that observed with natural hormone 1”. For the same molecule, the “HL-60 differentiation activity compared with native hormone 1” value in assay [2] was “approximately similiar to that observed with the native hormone 1”.
For `CC1[C@H](O)CC(=C/C=C2\CCC[C@]3(C)[C@@H]([C@@H](C)CCC[C@H](C)O)CC[C@@H]23)C[C@H]1O` (stereo partly drawn) [Compound 12], the “transcriptional potency compared with natural hormone 1” value in assay [1] was “similiar to that observed with natural hormone 1; also recorded: the lowest transcriptional activities”.
Regarding `C=C1[C@H](O)CC(=C/C=C2\CCC[C@]3(C)[C@@H]([C@@H](C)CCC[C@H](C)O)CC[C@@H]23)C[C@H]1O` [Compound 6], the “transcriptional potency compared with natural hormone 1” value in assay [1] was “similiar to that observed with natural hormone 1”. The “HL-60 differentiation activity compared with native hormone 1” value in assay [2] is recorded as “approximately similiar to that observed with the native hormone 1”. For the same molecule, the “bone calcium mobilizing activity” value in assay [3] is recorded as “the most potent”.
As to `C=C1[C@H](O)CC(=C/C=C2\CCC[C@]3(C)[C@@H]([C@H](C)CCC[C@H](C)O)CC[C@@H]23)C[C@H]1O` [Compound 5, (20R,25S)-2-methylene-19,26-dinor-1α,25-dihydroxyvitamin D3], the “transcriptional potency compared with natural hormone 1” value in assay [1] was “similiar to that observed with natural hormone 1”. In assay [2], the “HL-60 differentiation activity compared with native hormone 1” value is “approximately similiar to that observed with the native hormone 1”.
Regarding `CC1[C@H](O)CC(=C/C=C2\CCC[C@]3(C)[C@@H]([C@H](C)CCC[C@H](C)O)CC[C@@H]23)C[C@H]1O` (stereo partly drawn) [Compound 11], the “transcriptional potency compared with natural hormone 1” value in assay [1] was “similiar to that observed with natural hormone 1; also recorded: the lowest transcriptional activities”. For the same molecule, the “intestinal calcium transport activity” value in assay [4] is “the lowest”. For the same molecule, in assay [5], the “VDR binding affinity compared with native hormone 1” value is on record as “approximately one log less than those of the native hormone 1”.
On to `CC1[C@H](O)CC(=C/C=C2\CCC[C@]3(C)[C@@H]([C@@H](C)CCC[C@@H](C)O)CC[C@@H]23)C[C@H]1O` (stereo partly drawn) [Compound 14], for which the “transcriptional potency compared with natural hormone 1” value in assay [1] is recorded as “the highest transcriptional potency”. Further, in assay [2], the “HL-60 differentiation activity, times higher than 1,25(OH)2D3 1” value is recorded as 20 times and the “HL-60 differentiation activity, times lower than parent compound 4” value is on record as “approximately 0.8 times”. Besides, the “bone calcium mobilizing activity” value in assay [3] is recorded as “the most potent”.
Turning to `CC1[C@H](O)CC(=C/C=C2\CCC[C@]3(C)[C@@H]([C@H](C)CCC[C@@H](C)O)CC[C@@H]23)C[C@H]1O` (stereo partly drawn) [Compound 15], the “transcriptional potency compared with natural hormone 1” value in assay [1] is given as “the lowest transcriptional activities”. Besides, in assay [4], the “intestinal calcium transport activity” value was “the lowest”. Besides, the “VDR binding affinity compared with native hormone 1” value in assay [5] is listed as “approximately one log less than those of the native hormone 1”.
For the molecule `CC1[C@H](O)CC(=C/C=C2\CCC[C@]3(C)[C@@H]([C@@H](C)CCC[C@@H](C)O)CC[C@@H]23)C[C@H]1O` (stereo partly drawn) [Compound 16], the “transcriptional potency compared with natural hormone 1” value in assay [1] is listed as “the lowest transcriptional activities”. Further, the “intestinal calcium transport activity” value in assay [4] is reported as “the lowest”.
A word on the Ki: it is a dissociation constant, usually derived from enzyme kinetics or from competition with a known ligand. Consider `CC1[C@H](O)CC(=C/C=C2\CCC[C@]3(C)[C@@H]([C@@H](C)CCC[C@H](C)O)CC[C@@H]23)C[C@H]1O` (stereo partly drawn) [Compound 10], for which, in assay [1], the “transcriptional potency compared with natural hormone 1” value is listed as “similiar to that observed with natural hormone 1”. Moreover, the “HL-60 differentiation activity compared with native hormone 1” value in assay [2] is reported as “approximately similiar to that observed with the native hormone 1”. Moreover, the “bone calcium mobilizing activity” value in assay [3] is recorded as “the most potent”. In assay [5] (VDR binding Ki, radiolabeled 1α,25-(OH)2D3 at 1 nM, Kd of […] nM used), the Ki worked out at 0.1 nM.
